Reference: PubChem BioAssay (NCI)
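Grown in 96-well plates, cells were treated for 48 hours with each compound at five concentrations. Insufficient inhibition: endpoint recorded as highest concentration tested. GI50 marks 50% less growth. TGI: total growth inhibition.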 Where a SMILES comes first, the peptide text is derived from it. [ ]: non-standard residue; d: D form. The star is where a group is joined. Palmitoyl = CCCCCCCCCCCCCCCC(=O)*; Cbz = O=C(OCc1ccccc1)*; Aib = CC(C)(N)C(=O)O; OBn = c1ccc(CO*)cc1

How the values were obtained:
Assay in all cases: NCI tumour cell line growth inhibition, 48 h
ACHN renal = test system: ACHN renal
CCRF-CEM leukemia = test system: CCRF-CEM leukemia
DU-145 prostate = test system: DU-145 prostate
HOP-62 NSCLC = test system: HOP-62 NSCLC
KM12 colon = test system: KM12 colon
MALME-3M melanoma = test system: MALME-3M melanoma
OVCAR-5 ovarian = test system: OVCAR-5 ovarian
SF-295 CNS = test system: SF-295 CNS
SNB-19 CNS = test system: SNB-19 CNS
UO-31 renal = test system: UO-31 renal

In the case of CN1CC[C@]2(c3cccc(O)c3)CC(=O)/C(=C/c3ccccc3)[C@@H]1C2, the TGI (ACHN renal) is reported as 6.74 µM, the TGI (CCRF-CEM leukemia) is reported as over 24.5 µM and the TGI (DU-145 prostate) is reported as 17.5 µM. The TGI (HOP-62 NSCLC) was 12.7 µM, the TGI (KM12 colon) was 11.4 µM and the TGI (MALME-3M melanoma) was 10.4 µM. For the same molecule, the TGI (OVCAR-5 ovarian) was 29.7 µM, the TGI (SF-295 CNS) was 13.2 µM and the TGI (SNB-19 CNS) was 18.2 µM. For the same molecule, the TGI (UO-31 renal) was 10.4 µM.
For CC(C)(CO)CNc1nc(N)nc(Cl)c1/C=N/O, the TGI (ACHN renal) was over 100 µM, the TGI (CCRF-CEM leukemia) was over 100 µM and the TGI (DU-145 prostate) was over 100 µM. For the same molecule, the TGI (HOP-62 NSCLC) was over 100 µM, the TGI (KM12 colon) was over 100 µM and the TGI (MALME-3M melanoma) was over 100 µM. It also gave a TGI (OVCAR-5 ovarian) of over 100 µM, a TGI (SF-295 CNS) of over 100 µM and a TGI (UO-31 renal) of over 100 µM.
Molecule CC(NC(=O)C(C)(C)NC(=O)C(CC(=O)OCc1ccccc1)NC(=O)OCc1ccccc1)C(N)=O (stereo not drawn) (Cbz-Asp(OBn)-[Aib]-Ala-NH2; configuration not given here) has a TGI (ACHN renal) of over 100 µM, a TGI (CCRF-CEM leukemia) of over 100 µM and a TGI (DU-145 prostate) of over 100 µM. It also gave a TGI (HOP-62 NSCLC) of over 100 µM, a TGI (KM12 colon) of over 100 µM and a TGI (MALME-3M melanoma) of over 100 µM. For the same molecule, the TGI (OVCAR-5 ovarian) was over 100 µM, the TGI (SF-295 CNS) was over 100 µM and the TGI (SNB-19 CNS) was over 100 µM. For the same molecule, the TGI (UO-31 renal) was over 100 µM.
Molecule Cn1c2ccccc2c2c(=S)c3ccccc3ccc21 has a TGI (ACHN renal) of over 100 µM, a TGI (CCRF-CEM leukemia) of over 100 µM and a TGI (DU-145 prostate) of over 100 µM. The TGI (HOP-62 NSCLC) was over 100 µM, the TGI (KM12 colon) was over 100 µM and the TGI (MALME-3M melanoma) was over 100 µM. For the same molecule, the TGI (OVCAR-5 ovarian) was over 100 µM, the TGI (SF-295 CNS) was over 100 µM and the TGI (SNB-19 CNS) was over 100 µM. It also gave a TGI (UO-31 renal) of over 100 µM.
CCOC(=O)c1c2cccccc-2nc1Nc1cccc2c(C)ccnc12 gave a TGI (ACHN renal) of over 10 µM, a TGI (CCRF-CEM leukemia) of over 10 µM and a TGI (DU-145 prostate) of over 10 µM. The TGI (HOP-62 NSCLC) was over 10 µM, the TGI (KM12 colon) was over 10 µM and the TGI (MALME-3M melanoma) was over 10 µM. It also gave a TGI (OVCAR-5 ovarian) of over 10 µM, a TGI (SF-295 CNS) of over 10 µM and a TGI (SNB-19 CNS) of over 10 µM. It also gave a TGI (UO-31 renal) of over 10 µM.
COc1ccc(C(=O)NCCN(C)C)c2nc3ccccc3cc12 showed a TGI (ACHN renal) of 2.5 µM, a TGI (CCRF-CEM leukemia) of 11.4 µM and a TGI (DU-145 prostate) of 3.85 µM. For the same molecule, the TGI (HOP-62 NSCLC) was 2.72 µM, the TGI (KM12 colon) was 7.79 µM and the TGI (MALME-3M melanoma) was 2.3 µM. For the same molecule, the TGI (OVCAR-5 ovarian) was 8.06 µM, the TGI (SF-295 CNS) was 6.34 µM and the TGI (SNB-19 CNS) was 9.49 µM. For the same molecule, the TGI (UO-31 renal) was 5.14 µM.
With CC(C)(C)N=C(N)NC#N the TGI (ACHN renal) was over 100 µM, the TGI (CCRF-CEM leukemia) was over 100 µM and the TGI (DU-145 prostate) was over 100 µM. The TGI (HOP-62 NSCLC) was over 100 µM, the TGI (MALME-3M melanoma) was over 100 µM and the TGI (OVCAR-5 ovarian) was over 100 µM. It also gave a TGI (SNB-19 CNS) of over 100 µM and a TGI (UO-31 renal) of over 100 µM.
With c1ccc(C2=NOC(c3ccccc3)N2C23CC4CC(CC(C4)C2)C3)cc1 (stereo not drawn) the TGI (ACHN renal) was over 10 µM, the TGI (CCRF-CEM leukemia) was over 10 µM and the TGI (DU-145 prostate) was over 10 µM. The TGI (HOP-62 NSCLC) was over 10 µM, the TGI (KM12 colon) was over 10 µM and the TGI (MALME-3M melanoma) was over 10 µM. It also gave a TGI (OVCAR-5 ovarian) of over 10 µM, a TGI (SF-295 CNS) of over 10 µM and a TGI (SNB-19 CNS) of over 10 µM.
Work on CCCCCCCCCCCCCCCC(=O)N1CCCC1C(=O)NCC(=O)NC(Cc1ccccc1)C(=O)N1CCCC1C(=O)NC(CO)C(=O)NC(Cc1ccc(O)cc1)C(=O)NC(CCCCN)C(=O)NC(CC(C)C)C(=O)NC(CCCN=C(N)N)C(=O)N1CCCC1C(=O)NCC(N)=O (stereo not drawn) (Palmitoyl-PGFPSYKLRPG-NH2; configuration not given here) yielded a GI50 (CCRF-CEM leukemia) of 17 µM, a TGI (CCRF-CEM leukemia) of 33.8 µM and a GI50 (DU-145 prostate) of 18.3 µM. The TGI (DU-145 prostate) was 39.9 µM, the GI50 (HOP-62 NSCLC) was 22.9 µM and the TGI (HOP-62 NSCLC) was 48 µM. It also gave a GI50 (KM12 colon) of 2.28 µM, a TGI (KM12 colon) of 12.7 µM and a GI50 (MALME-3M melanoma) of 0.45 µM. It also gave a TGI (MALME-3M melanoma) of 5.73 µM, a GI50 (OVCAR-5 ovarian) of 17.1 µM and a TGI (OVCAR-5 ovarian) of 37.8 µM. The GI50 (SF-295 CNS) was 26.5 µM, the TGI (SF-295 CNS) was 75.9 µM and the GI50 (SNB-19 CNS) was 25.7 µM. For the same molecule, the TGI (SNB-19 CNS) was 55.5 µM, the GI50 (UO-31 renal) was 20.5 µM and the TGI (UO-31 renal) was 56.8 µM.
In the case of O=C(NCCCl)O/N=C/c1cccnc1, the TGI (CCRF-CEM leukemia) is reported as over 100 µM, the TGI (HOP-62 NSCLC) is reported as over 100 µM and the TGI (KM12 colon) is reported as over 100 µM. For the same molecule, the GI50 (MALME-3M melanoma) was 89.5 µM, the TGI (MALME-3M melanoma) was over 100 µM and the TGI (OVCAR-5 ovarian) was over 100 µM. For the same molecule, the TGI (SF-295 CNS) was over 100 µM, the TGI (SNB-19 CNS) was over 100 µM and the TGI (UO-31 renal) was over 100 µM.
